Experimental data from patent US9902728B2, “Pyrrolo and pyrazolopyrimidines as ubiquitin-specific protease 7 inhibitors” (Forma Therapeutics, Inc., priority 2014, dated 2018).
pIC50: −log10 of the molar value.

target: T1, USP7 (Homo sapiens, UniProt Q93009); assay: USP7 Assay A (Ubitquin-Rhodamine 110 Assay); format: biochemical; settings: USP7_IC50, USP7 activity in USP7 assay A and B (table does not say which assay per compound)
T1 construct: USP7, construct USP7 (208-1102) 6*His, Viva Biotech; 6xHis (C); purchased Viva Biotech
T1 sequence (Q93009 208-1102): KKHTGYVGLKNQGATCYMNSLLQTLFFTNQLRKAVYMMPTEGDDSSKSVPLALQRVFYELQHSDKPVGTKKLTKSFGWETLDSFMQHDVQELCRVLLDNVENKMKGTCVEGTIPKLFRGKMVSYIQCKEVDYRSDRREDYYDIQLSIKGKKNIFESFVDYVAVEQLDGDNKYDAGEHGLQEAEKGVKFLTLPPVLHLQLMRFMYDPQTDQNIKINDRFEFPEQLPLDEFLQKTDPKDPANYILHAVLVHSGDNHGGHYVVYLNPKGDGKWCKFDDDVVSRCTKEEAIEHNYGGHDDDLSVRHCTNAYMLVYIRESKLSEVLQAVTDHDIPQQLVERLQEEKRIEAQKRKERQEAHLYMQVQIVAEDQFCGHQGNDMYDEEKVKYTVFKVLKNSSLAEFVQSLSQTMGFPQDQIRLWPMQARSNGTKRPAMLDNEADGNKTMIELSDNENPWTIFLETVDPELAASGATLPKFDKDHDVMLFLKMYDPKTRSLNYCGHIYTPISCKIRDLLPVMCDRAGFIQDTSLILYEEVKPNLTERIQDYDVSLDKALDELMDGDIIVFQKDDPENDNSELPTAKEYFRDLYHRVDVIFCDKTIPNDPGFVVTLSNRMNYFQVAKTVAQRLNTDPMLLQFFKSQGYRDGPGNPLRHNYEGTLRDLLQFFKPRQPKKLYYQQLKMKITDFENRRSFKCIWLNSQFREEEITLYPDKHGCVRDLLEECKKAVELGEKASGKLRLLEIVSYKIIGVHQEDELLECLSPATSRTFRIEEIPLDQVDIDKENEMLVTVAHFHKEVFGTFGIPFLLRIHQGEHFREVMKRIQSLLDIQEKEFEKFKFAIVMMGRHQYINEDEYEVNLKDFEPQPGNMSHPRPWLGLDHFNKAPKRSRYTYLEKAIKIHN
Procedure, shortened: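 Enzyme and compound sat together for 30 min before Ub-Rh110 was added, in buffer of 20 mM Tris-HCl (pH 8.0), 1 mM GSH, 0.03% BGG and 0.01% Triton X-100.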

SMILES	pIC50
CN1C2CCC1CN(c1cccc(-n3ncc4c(=O)n(CC5(O)CCN(C(=O)C6(C)CC6)CC5)cnc43)c1)C2 [Compound I-1644]	> 6.70

same assay, conditions: USP7 activity in USP7 assay A and B (table does not say which assay per compound); read-out: USP7_IC50

SMILES	pIC50
Cc1cc(OC2CCC(C(=O)N3CCC(O)(Cn4cnc5c(cnn5-c5ccc(F)cc5)c4=O)CC3)CC2)no1 (stereo not drawn) [Compound I-755]	6.00 to 6.70
O=C(C1CCC(Oc2cccnn2)CC1)N1CCC(O)(Cn2cnc3c(cnn3-c3ccc(F)cc3)c2=O)CC1 (stereo not drawn) [Compound I-1212]	6.00 to 6.70
O=C(NC1CCC(C(=O)N2CCC(O)(Cn3cnc4c(cnn4-c4ccc(F)cc4)c3=O)CC2)CC1)C1CC1 (stereo not drawn) [Compound I-1075]	5.00 to 6.00
O=C(C[C@@H](C(F)F)n1cc(F)cn1)N1CCC(O)(Cn2cnc3c(cnn3-c3ccc(F)cc3)c2=O)CC1 [Compound I-918]	< 5.00
O=C(C1CCC(Oc2cccc(F)n2)CC1)N1CCC(O)(Cn2cnc3c(cnn3-c3ccccc3)c2=O)CC1 (stereo not drawn) [Compound I-741]	> 6.70
CN1Cc2cnn(-c3ccc(C(=O)N4CCC(O)(Cn5cnc6c(cnn6-c6ccc(F)cc6)c5=O)CC4)cc3)c2C1 [Compound I-1000]	5.00 to 6.00
CC1(COc2ccc(-n3ncc4c(=O)n(CC5(O)CCN(C(=O)C6(C)CC6)CC5)cnc43)cc2)COC1 [Compound I-1118]	> 6.70
C[C@@]1(O)CCN(c2ccc(-n3ncc4c(=O)n(CC5(O)CCN(C(=O)C[C@@H](C(F)F)n6cccn6)CC5)cnc43)cc2)C1 [Compound I-836]	5.00 to 6.00
O=C(C1CCC(Oc2ccccn2)CC1)N1CCC(O)(Cn2cnc3c(cnn3-c3ccc(CO)cc3)c2=O)CC1 (stereo not drawn) [Compound I-852]	> 6.70
CC1(C(=O)N2CCC(O)(Cn3cnc4c(cnn4-c4ccc(N5CCC(C#N)CC5)cc4)c3=O)CC2)CC1 [Compound I-1752]	6.00 to 6.70
CC1(C(=O)N2CCC(O)(Cn3cnc4c(cnn4-c4ccc(-c5cnn(C6CCOCC6)c5)cc4)c3=O)CC2)CC1 [Compound I-1722]	> 6.70
Cn1cc(C(=O)N2CCC(O)(Cn3cnc4c(ccn4-c4ccc(F)cc4)c3=O)CC2)cn1 [Compound I-1078]	6.00 to 6.70
CC1(C(=O)N2CCC(O)(Cn3cnc4c(cnn4-c4ccc(N5CC(O)C5)cc4)c3=O)CC2)CC1 [Compound I-1677]	6.00 to 6.70
O=C(C[C@H](C(F)F)n1ccc(F)n1)N1CCC(O)(Cn2cnc3c(cnn3-c3ccc(F)cc3)c2=O)CC1 [Compound I-543]	6.00 to 6.70
Cn1cc(-c2ccc(-n3ncc4c(=O)n(CC5(O)CCN(C(=O)C6(C)CC6)CC5)cnc43)cc2)cn1 [Compound I-775]	6.00 to 6.70
CC1(C(=O)N2CCC(O)(Cn3cnc4c(cnn4-c4cccc(N5CCN(C6COC6)CC5)c4)c3=O)CC2)CC1 [Compound I-1700]	6.00 to 6.70
O=C(c1cnc(C2CC2)o1)N1CCC(O)(Cn2cnc3c(cnn3-c3ccc(-c4cccnc4)cc3)c2=O)CC1 [Compound I-985]	6.00 to 6.70
Cn1ccc(NC2CCC(C(=O)N3CCC(O)(Cn4cnc5c(cnn5-c5ccc(F)cc5)c4=O)CC3)CC2)n1 (stereo not drawn) [Compound I-766]	6.00 to 6.70
O=C(C1CC1)N1CCC(O)(Cn2cnc3c(cnn3-c3ccc(-c4cnn5c4COCC5)cc3)c2=O)CC1 [Compound I-1673]	5.00 to 6.00
Cn1nccc1O[C@H]1CC[C@H](C(=O)N2CCC(O)(Cn3cnc4c(ccn4-c4ccc(F)cc4)c3=O)CC2)CC1 [Compound I-794]	6.00 to 6.70
O=C(C[C@H](C(F)F)n1cccn1)N1CCC(O)(Cn2cnc3c(cnn3-c3ccc(Cl)cc3)c2=O)CC1 [Compound I-1131]	5.00 to 6.00
CC1(C(=O)N2CCC(O)(Cn3cnc4c(cnn4-c4ccc(OCC5(F)CCC5)cc4)c3=O)CC2)CCC1 [Compound I-1137]	> 6.70
COc1ccc(OC2CCC(C(=O)N3CCC(O)(Cn4cnc5c(cnn5-c5ccccc5)c4=O)CC3)CC2)nc1 (stereo not drawn) [Compound I-1020]	6.00 to 6.70
O=C(c1ccc(F)cc1)N1CCC(O)(Cn2cnc3c(cnn3-c3ccc(N4CCN5CCCC[C@@H]5C4)cc3)c2=O)CC1 [Compound I-484, (R)-5-((1-(4-fluorobenzoyl)-4-hydroxypiperidin-4-yl)methyl)-1-(4-(octahydro-2H-pyrido[1,2-a]pyrazin-2-yl)phenyl)-1,5-dihydro-4H-pyrazolo[3,4-d]pyrimidin-4-one]	> 6.70
CN1CC2CC1CN2c1ccc(C(=O)N2CCC(O)(Cn3cnc4c(cnn4-c4ccc(F)cc4)c3=O)CC2)cc1 (stereo not drawn) [Compound I-604]	5.00 to 6.00
O=C(C1CCC(Nc2cccnc2F)CC1)N1CCC(O)(Cn2cnc3c(cnn3-c3ccccc3)c2=O)CC1 (single isomer, unassigned) [Compounds I-1039]	6.00 to 6.70
C[C@H](CC(=O)N1CCC(O)(Cn2cnc3c(cnn3-c3ccc(N4CC[C@](C)(O)C4)cc3)c2=O)CC1)n1cccn1 [Compound I-839]	> 6.70
CNC1CCN(c2ccc(-c3ccc(-n4ncc5c(=O)n(CC6(O)CCN(C(=O)C7CC7)CC6)cnc54)cc3)cn2)C1 (stereo not drawn) [Compound I-685]	> 6.70
Cc1cc(OC2CCN(C(=O)N3CCC(O)(Cn4cnc5c(cnn5-c5ccc(F)cc5)c4=O)CC3)CC2)no1 [Compound I-922]	5.00 to 6.00
NCc1cnn(-c2ccc(C(=O)N3CCC(O)(Cn4cnc5c(cnn5-c5ccc(F)cc5)c4=O)CC3)cc2)c1 [Compound I-613]	5.00 to 6.00

same assay, conditions: USP7 assay A and B (table does not say which assay per compound); read-out: USP7_IC50

SMILES	pIC50
COc1ccc(C(=O)N2CCC(O)(Cn3cnc4c(cnn4-c4ccc(F)cc4)c3=O)CC2)cc1 [Compound I-267]	6.00 to 6.70
O=C(C1CC1)N1CCC(O)(Cn2cnc3c(cnn3-c3ccc(Cl)cc3)c2=O)CC1 [Compound I-35]	5.00 to 6.00
O=C(C1CC1)N1CCC(O)(Cn2cnc3c(cnn3-c3ccc(N4CCNCC4)cc3)c2=O)CC1 [Compound I-499]	6.00 to 6.70
C=CS(=O)(=O)NCC(Cc1ccccc1)C(=O)N1CCC(O)(Cn2cnc3c(cnn3C)c2=O)CC1 (stereo not drawn) [Compound I-170]	< 5.00
CC(=O)N1CCC(O)(Cn2cnc3c(cnn3-c3ccccc3)c2=O)CC1 [Compound I-154]	5.00 to 6.00
COc1cc(-n2ncc3c(=O)n(CC4(O)CCN(C(=O)c5ccc(F)cc5)CC4)cnc32)ccc1F [Compound I-627]	5.00 to 6.00
COCCN(C)Cc1cccc(-n2ncc3c(=O)n(CC4(O)CCN(C(=O)C5CC5)CC4)cnc32)c1 [Compound I-449]	5.00 to 6.00
Cn1ncc2c(=O)n(CC3(O)CCN(C(=O)c4ccc(NS(=O)(=O)c5ccccc5)cc4)CC3)cnc21 [Compound I-111]	5.00 to 6.00
O=C(c1ccc(=O)[nH]c1)N1CCC(O)(Cn2cnc3c(cnn3-c3ccccc3)c2=O)CC1 [Compound I-160]	6.00 to 6.70
C[C@H](CC(=O)N1CCC(O)(Cn2cnc3c(cnn3-c3ccc(-c4ccccc4)cc3)c2=O)CC1)n1cccn1 [Compound I-650]	5.00 to 6.00
CN(C)C1CCN(C(=O)c2cccc(-n3ncc4c(=O)n(CC5(O)CCN(C(=O)C6CC6)CC5)cnc43)c2)CC1 [Compound I-1468]	5.00 to 6.00
C[C@H](CC(=O)N1CCC(O)(Cn2cnc3c(cnn3-c3ccc(F)cc3)c2=O)CC1)n1ncc2c1CCC2 [Compound I-522]	< 5.00
CNS(=O)(=O)c1ccc(C(=O)N2CCC(O)(Cn3cnc4c(cnn4-c4ccccc4)c3=O)CC2)cc1 [Compound I-182]	5.00 to 6.00
CN(C)c1ccc(-n2ncc3c(=O)n(CC4(O)CCN(C(=O)c5ccc(F)cc5)CC4)cnc32)cc1 [Compound I-707]	6.00 to 6.70
O=C(N1CCC(O)(Cn2cnc3c(cnn3-c3ccccc3)c2=O)CC1)C1(C(F)(F)F)CC1 [Compound I-277]	5.00 to 6.00
O=C(c1cnc(-c2ccccc2)o1)N1CCC(O)(Cn2cnc3c(cnn3-c3ccccc3)c2=O)CC1 [Compound I-252]	6.00 to 6.70
COC1(C)CCN(c2cc(-n3ncc4c(=O)n(CC5(O)CCN(C(=O)C6CC6)CC5)cnc43)ccc2F)C1 (stereo not drawn) [Compound I-633]	5.00 to 6.00
CN(C)CCNC(=O)c1ccc(-n2ncc3c(=O)n(CC4(O)CCN(C(=O)C5CC5)CC4)cnc32)cc1 [Compound I-1487]	6.00 to 6.70
Cn1cc(-n2ncc3c(=O)n(CC4(O)CCN(C(=O)c5ccc(F)cc5)CC4)cnc32)cn1 [Compound I-703]	5.00 to 6.00
O=C(c1ccc(C2CC2)cc1)N1CCC(O)(Cn2cnc3c(cnn3-c3ccc(F)cc3)c2=O)CC1 [Compound I-304]	5.00 to 6.00
O=C(c1ccc(OC(F)F)cc1)N1CCC(O)(Cn2cnc3c(cnn3-c3ccc(F)c(CO)c3)c2=O)CC1 [Compound I-641]	5.00 to 6.00
CC1(O)CCN(c2cc(-n3ncc4c(=O)n(CC5(O)CCN(C(=O)C6CC6)CC5)cnc43)ccc2F)C1 (stereo not drawn) [Compound I-636]	6.00 to 6.70
CNS(=O)(=O)Nc1ccc(-n2ncc3c(=O)n(CC4(O)CCN(C(=O)C5CC5)CC4)cnc32)cc1 [Compound I-504, 5-[(1-Cyclopropanecarbonyl-4-hydroxypiperidin-4-yl)methyl]-1-{4-[(methylsulfamoyl)amino]phenyl}-1H,4H,5H-pyrazolo[3,4-d]pyrimidin-4-one]	5.00 to 6.00
O=C(c1ccccc1)N1CCC(O)(Cn2cnc3c(ccn3-c3ccc(F)cc3)c2=O)CC1 [Compound I-48]	5.00 to 6.00
Cn1ncc2c(=O)n(CC3(O)CCN(C(=O)c4ccc(S(=O)(=O)Nc5ccccc5)cc4)CC3)cnc21 [Compound I-106]	5.00 to 6.00
CCN(Cc1ccc(-n2ncc3c(=O)n(CC4(O)CCN(C(=O)C5CC5)CC4)cnc32)cc1)C1CCCCC1 [Compound I-416]	5.00 to 6.00
O=C(N1CCC(O)(Cn2cnc3c(cnn3-c3ccc(F)cc3)c2=O)CC1)C12CC(C(F)(F)F)(C1)C2 [Compound I-423]	5.00 to 6.00
C=CS(=O)(=O)Nc1ccc(C(=O)N2CCC(O)(Cn3cnc4c(cnn4-c4ccccc4)c3=O)CC2)cc1 [Compound I-173]	6.00 to 6.70
O=C(c1ccc(Cl)cc1)N1CCC(O)(Cn2cnc3c(cnn3-c3ccc(F)cc3)c2=O)CC1 [Compound I-302, 5-{[1-(4-chlorobenzoyl)-4-hydroxypiperidin-4-yl]methyl}-1-(4-fluorophenyl)-1H,4H,5H-pyrazolo[3,4-d]pyrimidin-4-one]	6.00 to 6.70
